Data taken from patent US20050050594A1, “Tryptophan synthase as a site of herbicide action” (priority 1999, published 2005).
Where two headings read alike, the source gives them in different places.

Columns and labels:
[1] = biological target: T1, Salmonella typhimurium tryptophan synthase holoenzyme (α2β2), TSα reaction (Salmonella typhimurium, UniProt P00929); assay: Inhibition of tryptophan synthase by the TSα reaction, microtiter kinetic coupled enzyme assay; format: biochemical; conditions: for activity in enzyme inhibitory assays, relative to inhibitors 1-5: comparison within the series of inhibitors 1 to 5
T1 construct: made in house; host or cells: E. coli strain CB149pSTB7
Text: Inhibitors of TS were identified by their ability to inhibit the production of glyceraldehyde-3-P by the TSα reaction of the Salmonella typhimurium holoenzyme (α2β2) in the presence of a limiting amount of indole-3-glycerolphosphate and an excess of serine
The assay was developed as a new microtiter plate kinetic enzyme assay based on the combined methods of Creighton (EurJBch 13:1-10, 1970) and Creighton and Yanofsky (JBC 241:980, 1966) with modifications. The rate of glyceraldehyde production was measured as the linear […] (spectrophotometric absorbance at 340 nm) in the presence of glyceraldehyde-3-phosphate dehydrogenase in a coupled enzyme assay.
The assay solution contained a test inhibitor compound, 50 mM Tris-Cl (pH 7.8), 6 mM sodium arsenate, 5 μg/ml pyridoxal phosphate, 0.5 mM DTT, 0.18M NaCl, 60 mM serine, 1.6 mM NAD+, 8 e.u./ml yeast glyceraldehyde-3-phosphate dehydrogenase (Sigma, Catalog #G2647; Kirschner et al., Eur J Bch, 1975, 60:513 and approximately 1.5 e.u. Salmonella TS. 100 μM IGP was added to start the reaction, which was run at 37° C. and using 300 μl per assay in a microtiter plate.
The substrate IGP was used at 1.5 to 2 times its Km concentration to enhance the likelihood of identifying weak inhibitors, binding at the substrate binding site. This approach to identifying enzyme inhibitors was novel, since an excess of all substrates, (at least 5-times the Km value of each), is conventionally used in the measurement of enzyme activity.
Potential inhibitors were evaluated by adding 100 μM inhibitor (equimolar to substrate IGP):or less, in a 1:1 dilution series down from 100 μM, until the inhibition measured was less than 15%. Reaction rates at Vmax were compared in the presence and absence of inhibitors.
In addition, some weaker inhibitors were identified following preincubation of the inhibitor with the TS assay mix for 24 hrs prior to the addition of IGP. The identifying weaker inhibitors is to aid in a quantitative structure activity relationship (QSAR) evaluation, or to identify new herbicidal inhibitor leads. The previously known inhibitor IPP was used as a standard in all tests, where the I50 for IPP was 1-2 uM.

[2] = test system: a variety of dicotyledonous and monocotyledonous plants; assay: Postemergence greenhouse herbicidal test; format: in vivo; conditions: for activity in herbicidal (biological) assays, relative to inhibitors 1-5: comparison within the series of inhibitors 1 to 5
Protocol: The herbicidal activity of the compounds was tested as described in the U.S. Pat. No. 5,635,449. […] In the tests, seedling plants are grown in jiffy flats for about two weeks. The test compounds are dispersed in 50/50 acetone/water mixtures containing 0.5% TWEEN®20, a polyoxyethylene sorbitan monolaurate surfactant of Atlas Chemical Industries, in sufficient quantities to provide the equivalent of about 1.0 kg to 8.0 kg per hectare of test compound when applied to the plants through a spray nozzle operating at 40 psi for a predetermined time. After spraying, the plants are placed on greenhouse benches and are cared for in the usual manner, commensurate with conventional greenhouse practices. From four to five weeks after treatment, the seedling plants are examined and rate according to the rating system set forth below.

Arabidopsis thaliana = assay: Herbicidal activity and tryptophan reversal on Arabidopsis grown on agar medium; format: in vivo; design: key: 0 - no effect; 9 - total kill; C - chlorotic seedlings 4-6 days after treatment
Protocol: In this experiment, TS inhibitors were tested on Arabidopsis thaliana grown Murashige minimal organics medium, (obtained from Life Technologies, Grand Island, N.Y.), containing 0.7% agar. Compounds were tested at different concentrations to assess their herbicidal activity.

Arabidopsis TS enzyme = biological target: T2, Arabidopsis TS enzyme (Arabidopsis thaliana, UniProt Q42529); assay: TSα assay with recombinant plant TSα and TSβ expressed in E. coli; format: biochemical; conditions: inhibitor 82 uM; pAC 758 (1.5 ug) + pAC 755 (3 ug)
T2 construct: GST (N, cleaved yes); made in house; host or cells: E. coli DH5α (pGEX-2T constructs)
T2 sequence (Q42529 with tags, fused parts or gaps): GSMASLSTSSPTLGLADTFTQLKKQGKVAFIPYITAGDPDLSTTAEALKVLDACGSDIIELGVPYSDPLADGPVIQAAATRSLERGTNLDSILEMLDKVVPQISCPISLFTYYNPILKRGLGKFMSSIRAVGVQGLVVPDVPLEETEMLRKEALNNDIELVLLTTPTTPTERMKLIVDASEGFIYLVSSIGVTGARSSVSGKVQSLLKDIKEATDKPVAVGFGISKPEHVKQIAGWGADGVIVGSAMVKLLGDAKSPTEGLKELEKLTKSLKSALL
T2 sequence (P14671 with tags, fused parts or gaps partner): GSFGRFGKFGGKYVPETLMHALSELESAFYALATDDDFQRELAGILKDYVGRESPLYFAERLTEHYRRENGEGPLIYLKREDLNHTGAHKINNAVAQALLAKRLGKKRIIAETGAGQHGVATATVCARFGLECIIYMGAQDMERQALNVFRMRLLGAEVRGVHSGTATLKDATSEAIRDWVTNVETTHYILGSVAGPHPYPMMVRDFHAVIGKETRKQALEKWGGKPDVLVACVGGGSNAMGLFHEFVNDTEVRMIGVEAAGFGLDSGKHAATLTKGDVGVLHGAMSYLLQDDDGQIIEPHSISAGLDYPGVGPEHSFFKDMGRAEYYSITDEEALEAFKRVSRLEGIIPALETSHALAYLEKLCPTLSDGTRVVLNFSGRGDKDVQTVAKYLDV
Protocol: The plant TS proteins were expressed as fusion proteins with glutathione transferase (GST) to facilitate purification. After purification, the GST protein was cleaved off with thrombin as described above before the plant TS assays were performed. After thrombin cleavage, both TSα and TSβ-subunit proteins retained a Gly-Ser residue on the N-terminal of the protein in addition to the TS sequence. […]
The TSα enzyme assay was conducted as described in Example 3 for Salmonella TSα.
Specifically, phenylthiophosphonic acid compounds were used. The TSα assay conditions were as described for Salmonella TSα in Example 3 except that recombinant plant proteins were used instead of the Salmonella enzyme.

Synechocystis PCC 6803 = assay: End-product reversal in Synechocystis, culture growth in liquid medium; format: cell-based; conditions: for Culture density (%) / Culture density as A420: four days
Text: Synechocystis is a unicellular green organism that is actually a photosynthetic bacterium, with a photosynthetic system very similar to that of higher plant chloroplasts. Culture growth of Synechocystis could be inhibited by a compound of the present invention, and the growth inhibition could be prevented in the presence of tryptophan.

[3] = I50 TS, TSα reaction of the highly purified Salmonella typhimiurium holoenzyme
[4] = post emergence greenhouse test, 4 kg/ha
[5] = I50 TS, TSα reaction of Salmonella holoenzyme
[6] = inhibitor 62 μM, +tryptophan 31 μM
[7] = inhibitor 62 μM, +tryptophan 62 μM
[8] = inhibitor 125 μM, +tryptophan 31 μM
[9] = inhibitor 125 μM, +tryptophan 62 μM
[10] = inhibitor 125 μM, no tryptophan

T1 sequence (P00929 whole entry): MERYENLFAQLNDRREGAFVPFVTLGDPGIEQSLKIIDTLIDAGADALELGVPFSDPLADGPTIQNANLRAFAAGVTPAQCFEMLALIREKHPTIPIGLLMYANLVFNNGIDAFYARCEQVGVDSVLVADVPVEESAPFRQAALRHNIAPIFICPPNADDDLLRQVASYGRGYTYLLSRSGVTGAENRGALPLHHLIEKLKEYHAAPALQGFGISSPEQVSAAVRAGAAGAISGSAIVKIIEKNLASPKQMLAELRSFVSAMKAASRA
T1 sequence (P0A2K1 2-397, further chain): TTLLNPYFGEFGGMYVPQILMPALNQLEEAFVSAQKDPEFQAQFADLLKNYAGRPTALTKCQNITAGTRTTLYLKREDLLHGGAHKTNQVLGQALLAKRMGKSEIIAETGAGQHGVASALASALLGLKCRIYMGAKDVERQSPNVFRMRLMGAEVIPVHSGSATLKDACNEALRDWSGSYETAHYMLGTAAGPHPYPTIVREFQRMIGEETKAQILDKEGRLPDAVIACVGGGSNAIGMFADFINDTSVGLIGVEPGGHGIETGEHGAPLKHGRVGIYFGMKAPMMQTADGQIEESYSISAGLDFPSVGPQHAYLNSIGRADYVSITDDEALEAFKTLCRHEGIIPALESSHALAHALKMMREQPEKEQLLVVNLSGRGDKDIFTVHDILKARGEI

## O=P(O)(O)CCCc1c[nH]c2ccccc12 [Compound 7a]
[1]; [3]
  IC50: 125000 nM
[2]; [4]
  Herbicidal Activity: inactive

## O=P(O)(O)CCCCc1c[nH]c2ccccc12 [Compound 7b, Phosphonic acid, [4-(indol-3-yl)butyl]-]
[1]; [3]
  IC50: 20000 nM
[1]; TS inhibition I50, TSα reaction, Salmonella holoenzyme, 30 min at 37° C., 100 μM IGP
  IC50: 20000 nM
[2]; [4]
  Herbicidal Activity: weak (weak activity = maximum 20-30% injury on any species)

## Nc1ccccc1SCCCCP(=O)(O)O [Compound 13, 4-(2-aminophenylthio)-butylphosphonic acid]
[1]; TSα reaction of Salmonella holoenzyme, read-out: I50 TS
  IC50: 400 nM
[1]
  activity in enzyme inhibitory assays, relative to inhibitors 1-5: weakest activity
[2]; Postemergence application
  Herbicidal Activity: + (+ = 30-80% injury to one species)
[2]
  activity in herbicidal (biological) assays, relative to inhibitors 1-5: weakest activity

## O=P(O)(O)C=CCCSc1ccccc1O [Compound 28, {4-[(o-hydroxyphenyl)thio]-1-butenyl}phosphonic acid]
[1]; [5]
  IC50: 570 nM
[2]; Postemergence application
  Herbicidal Activity: ++++ (++++ = 80-100% injury to more than three species)
Arabidopsis thaliana; herbicide 7.8 mM + 100 μM Trp
  herbicidal rating: 0
Arabidopsis thaliana; herbicide 7.8 mM, no Trp
  herbicidal rating: 5C
Arabidopsis thaliana; herbicide 16 mM + 100 μM Trp
  herbicidal rating: 0
Arabidopsis thaliana; herbicide 16 mM, no Trp
  herbicidal rating: 5C
Arabidopsis thaliana; herbicide 31 mM + 100 μM Trp
  herbicidal rating: 0
Arabidopsis thaliana; herbicide 31 mM, no Trp
  herbicidal rating: 5C
Arabidopsis thaliana; herbicide 63 mM + 100 μM Trp
  herbicidal rating: 0
Arabidopsis thaliana; herbicide 63 mM, no Trp
  herbicidal rating: 6C
Arabidopsis thaliana; herbicide 125 mM + 100 μM Trp
  herbicidal rating: 0
Arabidopsis thaliana; herbicide 125 mM, no Trp
  herbicidal rating: 6C
Arabidopsis thaliana; herbicide 250 mM + 100 μM Trp
  herbicidal rating: 0
Arabidopsis thaliana; herbicide 250 mM, no Trp
  herbicidal rating: 6C
Arabidopsis thaliana; herbicide 500 mM + 100 μM Trp
  herbicidal rating: 0
Arabidopsis thaliana; herbicide 500 mM, no Trp
  herbicidal rating: 6C
Arabidopsis thaliana; herbicide 1000 mM + 100 μM Trp
  herbicidal rating: 0
Arabidopsis thaliana; herbicide 1000 mM, no Trp
  herbicidal rating: 6C

## O=P(O)(O)C=CCCSc1cc(Br)ccc1O [Compound 31, Phosphonic acid, {4-[(5-bromo-2-hydroxyphenyl)thio]-1-butenyl}-]
[1]; [5]
  IC50: 260 nM
[2]; Postemergence application
  Herbicidal Activity: + (+ = 30-80% injury to one species)
Arabidopsis TS enzyme
  TSα activity, % of control: 16.1 % of control
  TSα activity, relative Vmax: 0.238 mOD/min

## O=P(O)(O)CCCC[S+]([O-])c1ccccc1O (stereo not shown) [Compound 32, {4-[(o-hydroxyphenyl)sulfinyl]butyl}phosphonic acid]
[1]; [5]
  IC50: 440 nM
[2]; Postemergence application
  Herbicidal Activity: +++ (+++ = 80-100% injury to two species)
Arabidopsis TS enzyme
  TSα activity, % of control: 1.5 % of control
  TSα activity, relative Vmax: 0.095 mOD/min

## O=P(O)(O)CCCCS(=O)(=O)c1ccccc1O [Compound 33, Phosphonic acid, {4-[(o-hydroxyphenyl)sulfonyl]butyl}-]
[1]; [5]
  IC50: 360 nM
Arabidopsis TS enzyme
  TSα activity, % of control: 2.4 % of control
  TSα activity, relative Vmax: 0.150 mOD/min

## CC(C)N.CC(C)N.O=P(O)(O)C=CCCSc1ccccc1O [Inhibitor 1, 4-(2-hydroxyphenylthio)-1-butenylphosphonic acid, 1:2 salt with isopropylamine]
[1]
  activity in enzyme inhibitory assays, relative to inhibitors 1-5: highest activity
[2]
  activity in herbicidal (biological) assays, relative to inhibitors 1-5: highest activity

## O=C(Oc1ccccc1SCCCCP(=O)(O)O)c1ccccc1 [Phosphonic acid, {4-[(2-hydroxyphenyl)thio]butyl}-, benzoate (ester)]
Arabidopsis TS enzyme
  TSα activity, % of control: 2.7 % of control
  TSα activity, relative Vmax: 0.168 mOD/min
Synechocystis PCC 6803
  effect of tryptophan on the growth inhibitory effects: completely reversed
Synechocystis PCC 6803; [6]
  Culture density (%): 136%
  Culture density as A420: 0.726
Synechocystis PCC 6803; [7]
  Culture density (%): 132%
  Culture density as A420: 0.704
Synechocystis PCC 6803; inhibitor 62 μM, no tryptophan
  Culture density (%): 84%
  Culture density as A420: 0.449
Synechocystis PCC 6803; [8]
  Culture density (%): 116%
  Culture density as A420: 0.622
Synechocystis PCC 6803; [9]
  Culture density (%): 102%
  Culture density as A420: 0.544
Synechocystis PCC 6803; [10]
  Culture density (%): 7%
  Culture density as A420: 0.040

## Phosphonic acid, {4-[(o-hydroxyphenyl)thio]butyl}-,aryl-butyrate (ester)
Arabidopsis TS enzyme
  TSα activity, % of control: 2.1 % of control
  TSα activity, relative Vmax: 0.133 mOD/min
Arabidopsis thaliana; herbicide 7.8 mM + 100 μM Trp
  herbicidal rating: 1
Arabidopsis thaliana; herbicide 7.8 mM, no Trp
  herbicidal rating: 5
Arabidopsis thaliana; herbicide 16 mM + 100 μM Trp
  herbicidal rating: 1
Arabidopsis thaliana; herbicide 16 mM, no Trp
  herbicidal rating: 6
Arabidopsis thaliana; herbicide 31 mM + 100 μM Trp
  herbicidal rating: 1
Arabidopsis thaliana; herbicide 31 mM, no Trp
  herbicidal rating: 6
Arabidopsis thaliana; herbicide 63 mM + 100 μM Trp
  herbicidal rating: 3
Arabidopsis thaliana; herbicide 63 mM, no Trp
  herbicidal rating: 7
Arabidopsis thaliana; herbicide 125 mM + 100 μM Trp
  herbicidal rating: 5
Arabidopsis thaliana; herbicide 125 mM, no Trp
  herbicidal rating: 7
Arabidopsis thaliana; herbicide 250 mM + 100 μM Trp
  herbicidal rating: 5
Arabidopsis thaliana; herbicide 250 mM, no Trp
  herbicidal rating: 7
Arabidopsis thaliana; herbicide 500 mM + 100 μM Trp
  herbicidal rating: 3
Arabidopsis thaliana; herbicide 500 mM, no Trp
  herbicidal rating: 7
Arabidopsis thaliana; herbicide 1000 mM + 100 μM Trp
  herbicidal rating: 3
Arabidopsis thaliana; herbicide 1000 mM, no Trp
  herbicidal rating: 7
